Legend:
Format in all cases: in vivo
[1] = system: winter barley (Hordeum vulgare); assay: Test B postemergence plant response
Outline: (§1)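 Plants at the 1- to 4-leaf stage (2 to 18 cm tall), grown in pots of peat moss/vermiculite medium with wetting agent and starter nutrients, received postemergence applications of test chemicals. After 13 to 15 days in a greenhouse, injury was rated visually against untreated controls on a 0 (no effect) to 100 (complete control) scale.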

[2] = system: canarygrass (Phalaris minor); assay: Test B postemergence plant response
Outline: as §1

[3] = system: windgrass (Apera spica-venti); assay: Test B postemergence plant response
Outline: as §1

[4] = system: chickweed (Stellaria media); assay: Test B postemergence plant response
Outline: as §1

[5] = system: bermudagrass (Cynodon dactylon); assay: Test B pre-/postemergence plant response
Outline: (§2)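 Each species received compound formulated in non-phytotoxic solvent with surfactant, either at planting into a loam and sand blend or as a foliar spray once plants reached 2 to 18 cm in peat-based medium. Plants stayed in the greenhouse 13 to 15 days before visual evaluation against controls, scored 0 (no effect) to 100 (complete control).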

[6] = system: sunflower (common oilseed sunflower, Helianthus annuus); assay: Test B pre-/postemergence plant response; details: Preemergence
Outline: as §2

[7] = system: Russian thistle (Salsola kali); assay: Test B pre-/postemergence plant response; details: Preemergence
Outline: as §2

[8] = system: nightshade (eastern black nightshade, Solanum ptycanthum); assay: Test B pre-/postemergence plant response; details: Preemergence
Outline: as §2

[9] = system: morningglory (Ipomoea coccinea); assay: Test B pre-/postemergence plant response
Outline: as §2

[10] = system: galium (catchweed bedstraw, Galium aparine); assay: Test B pre-/postemergence plant response
Outline: as §2

[11] = system: umbrella sedge (Cyperus difformis); assay: Test B flooded paddy test; details: for Plant response rating, Flood, Sedge, Umbrella: 250 g ai/ha, flooded paddy test, visual rating on 0 to 100 scale (0 no effect, 100 complete control) after 13 to 15 days; for Plant response rating, Sedge, Umbrella: Flood (flooded paddy test), 13 to 15 days; for Sedge, Umbrella plant response rating: Flood, 31 g ai/ha, scale 0 to 100 (0 no effect, 100 complete control)
Outline: (§3)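 Each compound is added to standing floodwater (3 cm above soil, maintained) in pots of 2-leaf-stage plants; greenhouse exposure lasts 13–15 d before visual comparison with controls on a 0–100 control scale.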

[12] = system: barnyardgrass (Echinochloa crus-galli); assay: Test B flooded paddy test; details: for Plant response rating, Flood, Barnyardgrass: 250 g ai/ha, flooded paddy test, visual rating on 0 to 100 scale (0 no effect, 100 complete control) after 13 to 15 days; for Plant response rating, Barnyardgrass: Flood (flooded paddy test), 13 to 15 days; for Barnyardgrass plant response rating: Flood, 31 g ai/ha, scale 0 to 100 (0 no effect, 100 complete control)
Outline: as §3

rice (Oryza sativa) = assay: Test B flooded paddy test; details: for Plant response rating, Flood, Rice: 250 g ai/ha, flooded paddy test, visual rating on 0 to 100 scale (0 no effect, 100 complete control) after 13 to 15 days; for Plant response rating, Rice: Flood (flooded paddy test), 13 to 15 days; for Rice plant response rating: Flood, 31 g ai/ha, scale 0 to 100 (0 no effect, 100 complete control)
Outline: as §3

[13] = system: ducksalad (Heteranthera limosa); assay: Test B flooded paddy test; details: for Plant response rating, Flood, Ducksalad: 250 g ai/ha, flooded paddy test, visual rating on 0 to 100 scale (0 no effect, 100 complete control) after 13 to 15 days; for Plant response rating, Ducksalad: Flood (flooded paddy test), 13 to 15 days; for Ducksalad plant response rating: Flood, 31 g ai/ha, scale 0 to 100 (0 no effect, 100 complete control)
Outline: as §3

[14] = 31 g ai/ha, postemergence, scale 0 to 100, 0 is no effect, 100 is complete control
[15] = Postemergence, 62 g ai/ha, scale 0 (no effect) to 100 (complete control), 13 to 15 days
[16] = Postemergence, 125 g ai/ha, visual rating after 13 to 15 days, scale 0 (no effect) to 100 (complete control)
[17] = Postemergence, 250 g ai/ha, scale 0 to 100 (0 no effect, 100 complete control)
[18] = 250 g ai/ha, Preemergence, 0 to 100 scale
[19] = Preemergence, 31 g ai/ha, scale 0 to 100 (0 no effect, 100 complete control)
[20] = Preemergence, 62 g ai/ha, scale 0 to 100, 0 no effect, 100 complete control
[21] = Preemergence, 125 g ai/ha, scale 0 to 100, 0 no effect, 100 complete control
[22] = 31 g ai/ha, scale 0 to 100 (0 no effect, 100 complete control)
[23] = 62 g ai/ha, scale 0 to 100, 0 no effect, 100 complete control
[24] = 125 g ai/ha, scale 0 to 100, 0 no effect, 100 complete control
[25] = 62 g ai/ha, scale of 0 to 100 where 0 is no effect and 100 is complete control
[26] = 125 g ai/ha, scale 0 to 100, 0 is no effect, 100 is complete control
[27] = Postemergence, 31 g ai/ha, 0 to 100 scale (0 no effect, 100 complete control)
[28] = Postemergence, 125 g ai/ha, scale 0 to 100 (0 no effect, 100 complete control)
[29] = Postemergence, 250 g ai/ha, scale 0 to 100 (0 no effect, 100 complete control), 13 to 15 days
[30] = Postemergence, 62 g ai/ha, scale 0 to 100 (0 no effect, 100 complete control)
[31] = Preemergence, 250 g ai/ha, 0 to 100 scale

Compound: O=C1CCCC(O)=C1C(=O)c1cnc(-c2cccs2)n(-c2ccccc2)c1=O [Compound 66]
- Plant response rating, Barley [1, 14]: 0
- Plant response rating, Barley [1, 15]: 0
- Plant response rating, Barley [1, 16]: 0
- Plant response rating, Barley [1, 17]: 0
- Plant response rating, Canarygrass [2, 14]: 0
- Plant response rating, Canarygrass [2, 15]: 0
- Plant response rating, Canarygrass [2, 16]: 0
- Plant response rating, Canarygrass [2, 17]: 0
- Plant response rating, Windgrass [3, 14]: 60
- Plant response rating, Windgrass [3, 15]: 60
- Plant response rating, Windgrass [3, 16]: 70
- Plant response rating, Windgrass [3, 17]: 80
- Plant response rating, Chickweed [4, 14]: 80
- Plant response rating, Chickweed [4, 15]: 85
- Plant response rating, Chickweed [4, 16]: 95
- Plant response rating, Chickweed [4, 17]: 98
- Plant response rating, Bermudagrass [5, 14]: 70
- Plant response rating, Bermudagrass [5, 18]: 98
- Plant response rating, Bermudagrass [5, 15]: 70
- Plant response rating, Bermudagrass [5, 16]: 95
- Plant response rating, Bermudagrass [5, 17]: 95
- Plant response rating, Bermudagrass [5, 19]: 20
- Plant response rating, Bermudagrass [5, 20]: 80
- Plant response rating, Bermudagrass [5, 21]: 98
- Plant response rating, Sunflower [6, 22]: 0
- Plant response rating, Sunflower [6, 23]: 0
- Plant response rating, Sunflower [6, 24]: 0
- Plant response rating, Russian Thistle [7, 23]: 0
- Plant response rating, Nightshade [8, 22]: 80
- Plant response rating, Nightshade [8, 23]: 95
- Plant response rating, Nightshade [8, 24]: 98
- Plant response rating, Morningglory [9, 14]: 98
- Plant response rating, Morningglory [9, 15]: 100
- Plant response rating, Morningglory [9, 16]: 100
- Plant response rating, Morningglory [9, 17]: 100
- Plant response rating, Morningglory [9, 19]: 0
- Plant response rating, Morningglory [9, 20]: 20
- Plant response rating, Morningglory [9, 21]: 25
- Plant response rating, Galium [10, 18]: 0
- Plant response rating, Galium [10, 19]: 0
- Plant response rating, Galium [10, 20]: 0
- Plant response rating, Galium [10, 21]: 0
- Plant response rating, Flood, Sedge, Umbrella [11]: 50
- Plant response rating, Sedge, Umbrella [11, 25]: 0
- Plant response rating, Sedge, Umbrella [11, 26]: 30
- Sedge, Umbrella plant response rating [11]: 0
- Plant response rating, Flood, Barnyardgrass [12]: 45
- Plant response rating, Barnyardgrass [12, 25]: 0
- Plant response rating, Barnyardgrass [12, 26]: 0
- Barnyardgrass plant response rating [12]: 0
- Plant response rating, Flood, Rice (rice (Oryza sativa)): 20
- Plant response rating, Rice (rice (Oryza sativa); [25]): 0
- Plant response rating, Rice (rice (Oryza sativa); [26]): 0
- Rice plant response rating (rice (Oryza sativa)): 0
- Plant response rating, Flood, Ducksalad [13]: 20
- Plant response rating, Ducksalad [13, 25]: 0
- Plant response rating, Ducksalad [13, 26]: 0
- Ducksalad plant response rating [13]: 0

Compound: CCCCn1c(C2CC2)ncc(C(=O)C2=C(O)CCCC2=O)c1=O [Compound 193]
- Plant response rating, Barley [1, 27]: 0
- Plant response rating, Barley [1, 28]: 50
- Plant response rating, Barley [1, 29]: 50
- Plant response rating, Barley [1, 30]: 0
- Plant response rating, Canarygrass [2, 27]: 5
- Plant response rating, Canarygrass [2, 28]: 25
- Plant response rating, Canarygrass [2, 29]: 25
- Plant response rating, Canarygrass [2, 30]: 5
- Plant response rating, Windgrass [3, 27]: 50
- Plant response rating, Windgrass [3, 29]: 75
- Plant response rating, Windgrass [3, 30]: 70
- Plant response rating, Chickweed [4, 27]: 95
- Plant response rating, Chickweed [4, 28]: 100
- Plant response rating, Chickweed [4, 29]: 100
- Plant response rating, Chickweed [4, 30]: 98
- Plant response rating, Bermudagrass [5, 27]: 95
- Plant response rating, Bermudagrass [5, 28]: 100
- Plant response rating, Bermudagrass [5, 29]: 100
- Plant response rating, Bermudagrass [5, 30]: 100
- Plant response rating, Bermudagrass [5, 19]: 75
- Plant response rating, Bermudagrass [5, 20]: 95
- Plant response rating, Bermudagrass [5, 21]: 95
- Bermudagrass plant response rating ([5]; Preemergence, 250 g ai/ha, 0 to 100 scale, 0 no effect, 100 complete control): 98
- Plant response rating, Sunflower [6, 22]: 70
- Plant response rating, Sunflower [6, 23]: 80
- Plant response rating, Sunflower [6, 24]: 80
- Sunflower plant response rating ([6]; 250 g ai/ha, 0 to 100 scale): 95
- Plant response rating, Russian Thistle [7, 22]: 90
- Plant response rating, Russian Thistle [7, 23]: 98
- Plant response rating, Russian Thistle [7, 24]: 100
- Russian Thistle plant response rating ([7]; 250 g ai/ha, 0 to 100 scale): 100
- Plant response rating, Nightshade [8, 22]: 100
- Plant response rating, Nightshade [8, 23]: 100
- Plant response rating, Nightshade [8, 24]: 100
- Nightshade plant response rating ([8]; 250 g ai/ha, 0 to 100 scale): 100
- Plant response rating, Morningglory [9, 27]: 40
- Plant response rating, Morningglory [9, 28]: 65
- Plant response rating, Morningglory [9, 29]: 90
- Plant response rating, Morningglory [9, 30]: 60
- Plant response rating, Morningglory [9, 19]: 75
- Plant response rating, Morningglory [9, 20]: 90
- Plant response rating, Morningglory [9, 21]: 95
- Morningglory plant response rating [9, 31]: 95
- Plant response rating, Galium [10, 27]: 75
- Plant response rating, Galium [10, 28]: 90
- Plant response rating, Galium [10, 29]: 90
- Plant response rating, Galium [10, 19]: 75
- Plant response rating, Galium [10, 20]: 100
- Plant response rating, Galium [10, 21]: 100
- Galium plant response rating [10, 31]: 100
- Plant response rating, Flood, Sedge, Umbrella [11]: 90
- Plant response rating, Sedge, Umbrella [11, 25]: 30
- Plant response rating, Sedge, Umbrella [11, 26]: 70
- Sedge, Umbrella plant response rating [11]: 0
- Plant response rating, Flood, Barnyardgrass [12]: 50
- Plant response rating, Barnyardgrass [12, 25]: 20
- Plant response rating, Barnyardgrass [12, 26]: 45
- Barnyardgrass plant response rating [12]: 0
- Plant response rating, Flood, Rice (rice (Oryza sativa)): 65
- Plant response rating, Rice (rice (Oryza sativa); [25]): 15
- Plant response rating, Rice (rice (Oryza sativa); [26]): 30
- Rice plant response rating (rice (Oryza sativa)): 0
- Plant response rating, Flood, Ducksalad [13]: 100
- Plant response rating, Ducksalad [13, 25]: 50
- Plant response rating, Ducksalad [13, 26]: 85
- Ducksalad plant response rating [13]: 40
